In patent US12428415B2, “Matriptase 2 inhibitors and uses thereof” (Disc Medicine, Inc., priority 2018, dated 2025):
Like-named read-outs stand apart in the source and are kept apart here.

Target: T1, Human Recombinant Matriptase 2 (Homo sapiens, UniProt Q8IU80)
T1 construct: purchased Enzo Life Sciences (an in-house preparation was also used) ALX-201-752-1
T1 sequence (Q8IU80 1-811): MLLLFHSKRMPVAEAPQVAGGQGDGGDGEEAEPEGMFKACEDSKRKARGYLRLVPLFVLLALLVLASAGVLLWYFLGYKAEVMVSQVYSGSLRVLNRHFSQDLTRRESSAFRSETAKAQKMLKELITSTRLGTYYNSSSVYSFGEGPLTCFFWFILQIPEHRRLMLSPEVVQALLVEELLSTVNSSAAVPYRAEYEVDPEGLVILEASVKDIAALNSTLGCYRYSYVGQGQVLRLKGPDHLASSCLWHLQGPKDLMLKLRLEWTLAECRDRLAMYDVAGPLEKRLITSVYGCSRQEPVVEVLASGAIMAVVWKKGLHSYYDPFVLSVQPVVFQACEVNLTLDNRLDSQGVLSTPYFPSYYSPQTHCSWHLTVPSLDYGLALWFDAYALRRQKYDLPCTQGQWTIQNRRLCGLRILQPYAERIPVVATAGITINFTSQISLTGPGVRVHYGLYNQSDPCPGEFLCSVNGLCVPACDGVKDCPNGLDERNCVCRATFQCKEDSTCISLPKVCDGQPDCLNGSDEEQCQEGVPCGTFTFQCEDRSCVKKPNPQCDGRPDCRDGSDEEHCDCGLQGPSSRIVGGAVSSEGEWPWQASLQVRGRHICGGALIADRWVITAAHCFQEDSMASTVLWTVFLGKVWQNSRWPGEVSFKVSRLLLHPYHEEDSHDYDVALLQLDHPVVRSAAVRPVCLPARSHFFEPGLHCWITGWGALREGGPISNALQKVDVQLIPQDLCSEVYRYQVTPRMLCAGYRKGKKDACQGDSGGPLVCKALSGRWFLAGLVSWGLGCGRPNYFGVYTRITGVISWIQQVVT
Test: Matriptase 2 fluorescence based inhibition assay, Method A (100 mM TRIS pH 9, 1 mg/mL BSA)
Type: biochemical
Settings: read-out: Mar-2 % inhibition at 1 uM
Summary of the method: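 At 25° C in 100 mM TRIS pH 9 with 1 mg/mL BSA and 1% DMSO, compounds were preincubated 30 min with 7 nM commercial or 15 nM in-house protein before adding 100 μM Boc-Gln-Ala-Arg-7-amido-4-methyl coumarin. Fluorescence at 360/480 nm after 60 min; single points at 1 and 10 μM, IC50 by variable-slope nonlinear regression.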

| SMILES | inhibition at 1 µM (1 uM, Assay Used A) | inhibition at 1 µM (at 1 uM, Assay Used = A) |
| --- | --- | --- |
| C[C@H](NC(=O)OC(C)(C)C)C(=O)O/N=C(\N)c1ccc2cc(C(=O)Nc3cccc(N4CCCC4)c3)n(Cc3ccc(C(N)=O)cc3)c2c1 [Compound I-158, (S)-tert-butyl (1-(((amino(1-(4-carbamoylbenzyl)-2-((3-(pyrrolidin-1-yl)phenyl)carbamoyl)-1H-indol-6-yl)methylene)amino)oxy)-1-oxopropan-2-yl)carbamate] | 0 to 25% | – |
| N=C(NC(=O)OC1CCCCC1)c1ccc2cc(C(=O)Nc3cccc(N4CCCC4)c3)n(Cc3ccc(C(N)=O)cc3)c2c1 [Compound I-164] | 0 to 25% | – |
| N=C(N)c1ccc2cc(C(=O)Nc3cccc(-n4cc(C(F)(F)F)cn4)c3)n(Cc3ccc(C(N)=O)cc3)c2c1 [Compound I-165] | 0 to 25% | – |
| N=C(N)c1ccc2cc(C(=O)Nc3ccc(F)nc3)n(Cc3ccc(C(N)=O)cc3)c2c1 [Compound I-173] | 0 to 25% | – |
| Cc1cncc(NC(=O)c2cc3ccc(C(=N)N)cc3n2Cc2ccc(C(N)=O)cc2)c1 [Compound I-175] | 25 to 50% | – |
| N=C(N)c1ccc2cc(C(=O)Nc3ccc(N4CCCC4)nc3)n(Cc3ccc(C(N)=O)cc3)c2c1 [Compound I-177] | 0 to 25% | – |
| CCOC(=O)NC(=N)c1ccc2cc(C(=O)Nc3cccc(N4CCCC4)n3)n(Cc3ccc(C(N)=O)cc3)c2c1 [Compound I-183, Ethyl ((1-(4-carbamoylbenzyl)-2-((6-(pyrrolidin-1-yl)pyridin-2-yl)carbamoyl)-1H-indol-6-yl)(imino)methyl)carbamate] | 0 to 25% | – |
| N=C(N)c1ccc2cc(C(=O)N[C@H]3CC[C@H](N)CC3)n(Cc3ccc(C(N)=O)cc3)c2c1 [Compound I-184] | 25 to 50% | – |
| CC1CCC(NC(=O)c2cc3ccc(C(=N)N)cc3n2Cc2ccc(C(N)=O)cc2)CC1 (stereo not drawn) [Compound I-185] | 0 to 25% | – |
| N=C(N)c1ccc2cc(C(=O)NC3CCC(N4CCCC4)CC3)n(Cc3ccc(C(N)=O)cc3)c2c1 (stereo not drawn) [Compound I-188] | 25 to 50% | – |
| N=C(N)c1ccc2cc(C(=O)N[C@@H]3CC=CCC3)n(Cc3ccc(C(N)=O)cc3)c2c1 [Compound I-189] | 0 to 25% | – |
| N=C(N)c1ccc2cc(C(=O)NCC3CCCCC3)n(Cc3ccc(C(N)=O)cc3)c2c1 [Compound I-191] | 0 to 25% | – |
| C[C@@H](NC(=O)c1cc2ccc(C(=N)N)cc2n1Cc1ccc(C(N)=O)cc1)C1CCCCC1 [Compound I-194] | 0 to 25% | – |
| CC(C)N1CC[C@H](NC(=O)c2cc3ccc(C(=N)N)cc3n2Cc2ccc(C(N)=O)cc2)C1 [Compound I-196] | 0 to 25% | – |
| N=C(N)c1ccc2cc(C(=O)NC3Cc4ccccc4C3)n(Cc3ccc(C(N)=O)cc3)c2c1 [Compound I-201] | – | 0 to 25% |
| N=C(N)c1ccc2cc(C(=O)N[C@H]3c4ccccc4C[C@H]3O)n(Cc3ccc(C(N)=O)cc3)c2c1 [Compound I-204] | – | 0 to 25% |
| N=C(N)c1ccc2cc(C(=O)N[C@H]3CCNC3)n(Cc3ccc(C(N)=O)cc3)c2c1 [Compound I-205] | – | 25 to 50% |
| CN1CCC(NC(=O)c2cc3ccc(C(=N)N)cc3n2Cc2ccc(C(N)=O)cc2)CC1 [Compound I-206] | – | 25 to 50% |
| C[C@@H](O)CNC(=O)c1cc2ccc(C(=N)N)cc2n1Cc1ccc(C(N)=O)cc1 [Compound I-207] | – | 0 to 25% |
| CC[C@@H](CO)NC(=O)c1cc2ccc(C(=N)N)cc2n1Cc1ccc(C(N)=O)cc1 [Compound I-209] | – | 0 to 25% |
| N=C(N)c1ccc2c(Cl)c(C(=O)NCC3CCCCC3)n(Cc3ccc(C(N)=O)cc3)c2c1 [Compound I-213, 6-Carbamimidoyl-1-(4-carbamoylbenzyl)-3-chloro-N-(cyclohexylmethyl)-1H-indole-2-carboxamide] | – | 0 to 25% |

Now from value to compound:

| inhibition at 1 µM (1 uM, Assay Used A) | inhibition at 1 µM (at 1 uM, Assay Used = A) | SMILES |
| --- | --- | --- |
| 0 to 25% | – | N=C(N)c1ccc2cc(C(=O)Nc3cccc(N4CCCC4=O)c3)n(Cc3ccc(C(N)=O)cc3)c2c1 [Compound I-156] |
| 0 to 25% | – | CC(C)[C@@H](NC(=O)OC(C)(C)C)C(=O)O/N=C(\N)c1ccc2cc(C(=O)Nc3cccc(N4CCCC4)c3)n(Cc3ccc(C(N)=O)cc3)c2c1 [Compound I-157, (R)-tert-butyl (1-(((amino(1-(4-carbamoylbenzyl)-2-((3-(pyrrolidin-1-yl)phenyl)-carbamoyl)-1H-indol-6-yl)methylene)amino)oxy)-3-methyl-1-oxobutan-2-yl)carbamate] |
| 0 to 25% | – | CCCCCCOC(=O)NC(=N)c1ccc2cc(C(=O)Nc3cccc(N4CCCC4)c3)n(Cc3ccc(C(N)=O)cc3)c2c1 [Compound I-159] |
| 0 to 25% | – | CCCCOC(=O)NC(=N)c1ccc2cc(C(=O)Nc3cccc(N4CCCC4)c3)n(Cc3ccc(C(N)=O)cc3)c2c1 [Compound I-160] |
| 0 to 25% | – | CCCOC(=O)NC(=N)c1ccc2cc(C(=O)Nc3cccc(N4CCCC4)c3)n(Cc3ccc(C(N)=O)cc3)c2c1 [Compound I-162] |
| 0 to 25% | – | N=C(N)c1ccc2cc(C(=O)Nc3cccc(-c4cnco4)c3)n(Cc3ccc(C(N)=O)cc3)c2c1 [Compound I-163] |
| 0 to 25% | – | N=C(N)c1ccc2cc(C(=O)Nc3cccc(-n4ccc(C(F)(F)F)n4)c3)n(Cc3ccc(C(N)=O)cc3)c2c1 [Compound I-166] |
| 25 to 50% | – | N=C(N)c1ccc2cc(C(=O)NCc3ccncc3)n(Cc3ccc(C(N)=O)cc3)c2c1 [Compound I-168] |
| 0 to 25% | – | N=C(N)c1ccc2cc(C(=O)Nc3cc(F)ccn3)n(Cc3ccc(C(N)=O)cc3)c2c1 [Compound I-169] |
| 0 to 25% | – | N=C(N)c1ccc2cc(C(=O)Nc3cccnc3)n(Cc3ccc(C(N)=O)cc3)c2c1 [Compound I-170] |
| 0 to 25% | – | Cc1ccc(NC(=O)c2cc3ccc(C(=N)N)cc3n2Cc2ccc(C(N)=O)cc2)nc1 [Compound I-171] |
| 0 to 25% | – | N=C(N)c1ccc2cc(C(=O)Nc3cncc(F)c3)n(Cc3ccc(C(N)=O)cc3)c2c1 [Compound I-172] |
| 0 to 25% | – | N=C(N)c1ccc2cc(C(=O)Nc3ccc(Cl)nc3)n(Cc3ccc(C(N)=O)cc3)c2c1 [Compound I-174] |
| 0 to 25% | – | Cc1ccnc(NC(=O)c2cc3ccc(C(=N)N)cc3n2Cc2ccc(C(N)=O)cc2)c1 [Compound I-176] |
| 0 to 25% | – | N=C(N)c1ccc2cc(C(=O)Nc3ccnc(N4CCCC4)c3)n(Cc3ccc(C(N)=O)cc3)c2c1 [Compound I-178] |
| 0 to 25% | – | N=C(N)c1ccc2cc(C(=O)Nc3cc(N4CCCC4)ccn3)n(Cc3ccc(C(N)=O)cc3)c2c1 [Compound I-179] |
| 25 to 50% | – | N=C(N)c1ccc2cc(C(=O)Nc3cccc(N4CCCC4)n3)n(Cc3ccc(C(N)=O)cc3)c2c1 [Compound I-180] |
| 0 to 25% | – | N=C(N)c1ccc2cc(C(=O)Nc3cccc(-n4cccn4)n3)n(Cc3ccc(C(N)=O)cc3)c2c1 [Compound I-181] |
| 0 to 25% | – | C[C@H]1CC[C@H](NC(=O)c2cc3ccc(C(=N)N)cc3n2Cc2ccc(C(N)=O)cc2)CC1 [Compound I-186] |
| 0 to 25% | – | N=C(N)c1ccc2cc(C(=O)NC3CCC(F)(F)CC3)n(Cc3ccc(C(N)=O)cc3)c2c1 [Compound I-190] |
| 0 to 25% | – | N=C(N)c1ccc2cc(C(=O)NCC3CCOCC3)n(Cc3ccc(C(N)=O)cc3)c2c1 [Compound I-192] |
| 0 to 25% | – | C[C@H](NC(=O)c1cc2ccc(C(=N)N)cc2n1Cc1ccc(C(N)=O)cc1)C1CCCCC1 [Compound I-193] |
| 0 to 25% | – | N=C(N)c1ccc2cc(C(=O)NCCC3CCCCC3)n(Cc3ccc(C(N)=O)cc3)c2c1 [Compound I-195] |
| – | 0 to 25% | N=C(N)c1ccc2cc(C(=O)NC34CC5CC(CC(O)(C5)C3)C4)n(Cc3ccc(C(N)=O)cc3)c2c1 [Compound I-197] |
| – | 0 to 25% | N=C(N)c1ccc2cc(C(=O)N[C@]34CC5CC(C[C@@](O)(C5)C3)C4)n(Cc3ccc(C(N)=O)cc3)c2c1 [Compound I-198] |
| – | 0 to 25% | N=C(N)c1ccc2cc(C(=O)NC34CC5CC(CC(C5)C3)C4)n(Cc3ccc(C(N)=O)cc3)c2c1 [Compound I-200] |
| – | 0 to 25% | N=C(N)c1ccc2cc(C(=O)N[C@H]3CCc4ccccc43)n(Cc3ccc(C(N)=O)cc3)c2c1 [Compound I-202] |
| – | 0 to 25% | N=C(N)c1ccc2cc(C(=O)N[C@@H]3c4ccccc4C[C@H]3O)n(Cc3ccc(C(N)=O)cc3)c2c1 [Compound I-203] |
| – | 0 to 25% | CC(C)(O)CNC(=O)c1cc2ccc(C(=N)N)cc2n1Cc1ccc(C(N)=O)cc1 [Compound I-208] |
| – | 0 to 25% | N=C(N)c1ccc2c(O)c(C(=O)NCC3CCCCC3)n(Cc3ccc(C(N)=O)cc3)c2c1 [Compound I-212, 6-Carbamimidoyl-1-(4-carbamoylbenzyl)-N-(cyclohexylmethyl)-3-hydroxy-1H-indole-2-carboxamide] |
